# Experimental data published in patent US12370237B2, “Lipopeptides for use in treating liver diseases and cardiovascular diseases” (RUPRECHT-KARLS-UNIVERSITAET HEIDELBERG, priority 2012, dated 2025).
# Key:
# HBV = HBV infection of differentiated HepaRG and HuH7^hNTCP cells in presence of NTCP substrates (secreted HBeAg); format: cell-based; details: for Reduction of HBV infection (HBeAg secretion): 5 μM; for Inhibition of HBV infection as shown by HBeAg secretion: 50 μM and 500 μM
# hNTCP = target: T1, hNTCP (Homo sapiens, UniProt Q14973); assay: MyrB^atto binding competition assay by FACS in HuH7^hNTCP cells; details: 500 μM
# T1 construct: host or cells: HuH7
# T1 sequence (Q14973 1-349): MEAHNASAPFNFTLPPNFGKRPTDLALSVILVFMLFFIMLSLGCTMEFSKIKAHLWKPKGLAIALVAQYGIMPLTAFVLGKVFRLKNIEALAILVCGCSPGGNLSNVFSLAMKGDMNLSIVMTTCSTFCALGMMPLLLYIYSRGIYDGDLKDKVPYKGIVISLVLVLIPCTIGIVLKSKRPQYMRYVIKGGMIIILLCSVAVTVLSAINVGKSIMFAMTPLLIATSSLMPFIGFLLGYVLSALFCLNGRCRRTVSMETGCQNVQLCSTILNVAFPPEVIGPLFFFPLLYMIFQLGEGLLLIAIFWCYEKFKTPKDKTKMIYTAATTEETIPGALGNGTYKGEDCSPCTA
# Protocol: Binding was quantified by FACS analysis.
# (§1) Cells were washed (PBS/1% BSA), trypsinized, and suspended in Krebs-Henseleit-Buffer. Flow cytometry was performed on a FACS Canto II (BD Bioscience, Heidelberg, Germany); FlowJo v7.61 software (Treestar, Ashton, USA) was used for analysis. Compensation was performed using BD Compbeats (BD Bioscience, Heidelberg, Germany).
# mNtcp = target: T2, mNtcp (Mus musculus, UniProt O08705); assay: MyrB^atto binding to HepG2^mNtcp cells (FACS)
# T2 construct: expressed in transfected cells; host or cells: HepG2
# T2 sequence (O08705 1-362): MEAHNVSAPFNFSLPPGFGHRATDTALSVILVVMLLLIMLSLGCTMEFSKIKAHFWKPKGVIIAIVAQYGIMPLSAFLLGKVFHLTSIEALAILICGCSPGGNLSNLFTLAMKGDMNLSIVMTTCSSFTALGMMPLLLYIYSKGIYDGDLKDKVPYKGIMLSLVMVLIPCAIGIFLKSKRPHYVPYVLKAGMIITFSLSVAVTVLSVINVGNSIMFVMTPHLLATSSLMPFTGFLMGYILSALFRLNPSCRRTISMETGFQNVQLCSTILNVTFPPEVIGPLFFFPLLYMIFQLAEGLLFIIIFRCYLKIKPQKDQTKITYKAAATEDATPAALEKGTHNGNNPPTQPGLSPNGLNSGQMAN
# Protocol: as §1
# (§2) Taking advantage of the fluorescence of the ratNTCP-eGFP fusion, we confirmed co-localisation of the MyrB/rNtcp-complex in microvilli.
# ratNTCP-eGFP = target: T3, ratNTCP-eGFP (Rattus norvegicus, UniProt P26435); assay: MyrB^atto binding to HepG2 ratNTCP-eGFP cells (confocal microscopy)
# T3 construct: expressed in transfected cells; host or cells: HepG2
# T3 sequence (P26435 1-362): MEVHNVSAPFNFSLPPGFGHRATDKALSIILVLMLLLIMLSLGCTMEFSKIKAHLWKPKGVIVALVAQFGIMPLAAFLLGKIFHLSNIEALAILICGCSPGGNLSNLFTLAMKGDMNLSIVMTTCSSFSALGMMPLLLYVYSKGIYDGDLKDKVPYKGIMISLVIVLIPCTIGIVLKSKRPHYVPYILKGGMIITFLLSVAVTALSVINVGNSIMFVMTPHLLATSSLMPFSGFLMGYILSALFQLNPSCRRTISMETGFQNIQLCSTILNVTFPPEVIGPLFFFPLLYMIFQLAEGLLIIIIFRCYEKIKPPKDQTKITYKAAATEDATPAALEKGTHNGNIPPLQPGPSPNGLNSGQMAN
# Protocol: Note the co-localisation of hNTCP/MyrB^atto in microvilli.
# Cells were washed again (3×PBS/2% BSA), fixed with PFA, washed with PBS/1 ug/ml Hoechst 3342 and mounted (FluoromountG). NTCP immune staining was achieved after permeabilisation (10 min/RT) with TritonX 100 using a α-SCL10A1/NTCP antibody (Sigma, Germany) diluted 1:750 in PBS/2% BSA (18 h at 4° C.). A polyclonal rabbit antiserum H863 was used for HBcAg-staining, a polyclonal rabbit antiserum for MRP-2 detection, patient-derived serum (M. Roggendorf, Essen) for HδAg. As secondary antibodies goat anti-rabbit or -human, labelled with either AlexaFluor488 or AlexaFluor546 (Invitrogen) was used. Actin staining was performed by the addition of atto633-labelled Phalloidin diluted 1:2000 (ATTO-Tec, Germany) to the second staining step. Images were taken on a Leica DM IRB or Leica SP2 confocal microscope (Leica, Germany), image analysis was performed using ImageJ.
# as §2
Interference with MyrB^atto (preS) binding (hNTCP),Molecule,Reduction of HBV infection (HBeAg secretion) (HBV),Inhibition of HBV infection as shown by HBeAg secretion (HBV),Binding to mNtcp-expressing cells (mNtcp),Binding to rat NTCP-eGFP-expressing cells (ratNTCP-eGFP)
profoundly interfered with preS-binding,"C[C@H](CCC(=O)NCCS(=O)(=O)O)[C@H]1CC[C@H]2[C@@H]3[C@H](O)C[C@@H]4C[C@H](O)CC[C@]4(C)[C@H]3CC[C@]12C [TCDC, Taurochenodeoxy-Cholate]",Marginal reduction,inhibited HBV-infection,,
profoundly interfered with preS-binding,"C[C@H](CCC(=O)NCCS(=O)(=O)O)[C@H]1CC[C@H]2[C@@H]3CC[C@@H]4C[C@H](O)CC[C@]4(C)[C@H]3C[C@H](O)[C@]12C [TDC, Taurodeoxycholate]",Marginal reduction,inhibited HBV-infection,,
,MyrB^atto: atto-dye-labeled MyrB (atto488/atto565 NHS-ester coupled to lysine residues),,,specific and competable binding,specific and competable binding

Molecule,Interference with MyrB^atto (preS) binding (hNTCP),Reduction of HBV infection (HBeAg secretion) (HBV),Inhibition of HBV infection as shown by HBeAg secretion (HBV),Binding to mNtcp-expressing cells (mNtcp),Binding to rat NTCP-eGFP-expressing cells (ratNTCP-eGFP)
"C[C@H](CCC(=O)NCCS(=O)(=O)O)[C@H]1CC[C@H]2[C@@H]3[C@H](O)C[C@@H]4C[C@H](O)CC[C@]4(C)[C@H]3C[C@H](O)[C@]12C [TC, Taurocholate]",profoundly interfered with preS-binding,,,,
